From publication PMC5696560 (Bioorganic & Medicinal Chemistry Letters, 2017)
Values after ≈ are worked out from the molar mass of the structure shown.

What was measured:
[1] = human, microsomes
[2] = in vitro; conditions: human, human liver microsomes
[3] = system: M.tb strain H37Rv; test: MABA: inhibition of growth of M.tb H37Rv under aerobic (replicating) conditions; format: cell-based; conditions: for MIC90 / MIC: Mycobacterium tuberculosis, H37RV; for MIC: read-out: MIC90 MABA; for anti-M.tb activity (in words): M.tb H37Rv, comparison with 1
[4] = system: M.tb strain H37Rv; test: LORA: inhibition of growth of M.tb H37Rv under non-replicating conditions; format: cell-based; conditions: Mycobacterium tuberculosis
Experimental: The compounds were evaluated for their inhibition of growth (measured as MIC90 values in µg/mL) against M.tb (strain H37Rv) under both replicating (MABA)[16] or non-replicating (LORA)[17] conditions. […] In a search for less lipophilic analogues, we prepared and evaluated compounds where this phenyl B-ring unit was replaced with different heterocycles of varying lipophilicity (Table 1).

[5] = target: CYP 3A4 (Homo sapiens, UniProt P08684); test: Inhibition of CYP 3A4; format: in vitro ADME; conditions: 20 min exposure
[6] = rat, in vivo
[7] = system: M.tb strain H37Rv; test: MICs determined at Tibotec (slightly different protocol); format: cell-based; conditions: Mycobacterium tuberculosis, MICs determined at Tibotec (Mechelen, Belgium), read-out: MIC90 (MABA, footnote d)
Excerpt: Given that good activity had been reported for furan 2 (albeit in M. smegmatis),[11] we evaluated a series of both 2- and 3-furyl analogues bearing different C-unit substituents.

Sequence of CYP 3A4 (P08684 whole entry, species assumed): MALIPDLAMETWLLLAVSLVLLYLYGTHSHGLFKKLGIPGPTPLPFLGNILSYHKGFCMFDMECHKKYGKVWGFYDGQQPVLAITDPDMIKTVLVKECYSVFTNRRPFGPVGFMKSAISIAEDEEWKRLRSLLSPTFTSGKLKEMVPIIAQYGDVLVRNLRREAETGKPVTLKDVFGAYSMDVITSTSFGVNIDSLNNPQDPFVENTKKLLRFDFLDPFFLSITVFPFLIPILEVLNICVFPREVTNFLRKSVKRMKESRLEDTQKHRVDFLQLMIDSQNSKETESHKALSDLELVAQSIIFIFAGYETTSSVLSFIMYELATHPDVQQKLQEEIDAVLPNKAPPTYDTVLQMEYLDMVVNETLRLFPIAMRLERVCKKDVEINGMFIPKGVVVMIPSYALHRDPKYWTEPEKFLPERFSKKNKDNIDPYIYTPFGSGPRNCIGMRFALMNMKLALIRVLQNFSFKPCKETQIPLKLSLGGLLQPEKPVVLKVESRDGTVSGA

Structure (SMILES) | MIC90 [3] [µg/mL] | MIC90 [4] [µg/mL] | MIC90 [7] [µg/mL] | also measured
COc1nc2ccc(Br)cc2cc1[C@@H](c1ccnc(OC)c1OC)[C@@](O)(CCN(C)C)c1cccc(C#N)c1 [Compound 49] | 0.13 (≈ 0.22 µM) | 0.21 (≈ 0.355 µM) |  | Clint [1]: 19 µL/min/mg/protein; half-life [2]: 37 min; IC50 [5]: > 10 µM; F(%) oral bioavailability [6]: 68%; oral bioavailability (in words) [6]: comparable to that of 1
COc1cccc([C@](O)(CCN(C)C)[C@@H](c2cc3cc(Br)ccc3nc2OC)c2ccnc(OC)c2OC)c1OC [Compound 50] |  |  | 0.21 (≈ 0.335 µM) | 
COc1nc2ccc(Br)cc2cc1[C@@H](c1cc(C)sc1C)[C@@](O)(CCN(C)C)c1cccc(C#N)c1 [Compound 3, 3-(1-(6-Bromo-2-methoxyquinolin-3-yl)-4-(dimethylamino)-1-(2,5-dimethylthiophen-3-yl)-2-hydroxybutan-2-yl)benzonitrile] | 0.12 (≈ 0.213 µM) |  |  | MIC [3]: 0.05 to 0.58 µg/mL (≈ 0.0886 to 1.03 µM)
COc1ncccc1C(c1cc2cc(Br)ccc2nc1OC)C(O)(CCN(C)C)c1cccc(F)c1 (stereo not shown) [Compound 29] |  |  | 0.12 (≈ 0.216 µM) | 
COc1nc2ccc(C#N)cc2cc1[C@@H](c1cc(C)c(C)s1)[C@@](O)(CCN(C)C)c1cccc(F)c1 [Compound 10] | 0.05 (≈ 0.0993 µM) | 0.2 (≈ 0.397 µM) |  | anti-M.tb activity (in words) [3]: equally potent; MIC [3]: 0.05 to 0.58 µg/mL (≈ 0.0993 to 1.15 µM)
COc1nc2ccc(C#N)cc2cc1C(c1ccoc1)C(O)(CCN(C)C)c1cccc(F)c1 (stereo not shown) [Compound 23] |  |  | 1.08 (≈ 2.35 µM) | 
COc1nc2ccc(Br)cc2cc1[C@@H](c1ccnc(OC)c1OC)[C@@](O)(CCN(C)C)c1cccc(C)c1 [Compound 45] | 0.02 (≈ 0.0345 µM) | 0.04 (≈ 0.0689 µM) |  | Clint [1]: 13 µL/min/mg/protein; half-life [2]: 52 min; IC50 [5]: > 10 µM; F(%) oral bioavailability [6]: 40%
COc1ccc(C(c2cc3cc(C#N)ccc3nc2OC)C(O)(CCN(C)C)c2cccc(F)c2)s1 (stereo not shown) [Compound 14] |  |  | 0.7 (≈ 1.38 µM) | 
COc1ccc([C@H](c2cc3cc(Br)ccc3nc2OC)[C@@](O)(CCN(C)C)c2cccnc2OC)s1 [Compound 13] | 0.24 (≈ 0.419 µM) | 0.53 (≈ 0.926 µM) |  | anti-M.tb activity (in words) [3]: effective inhibitors
COc1cccc([C@](O)(CCN(C)C)[C@@H](c2cc3cc(Br)ccc3nc2OC)c2cc(C)sc2C)c1OC (racemic) [Compound 4] | 0.5 (≈ 0.834 µM) | 0.27 (≈ 0.45 µM) |  | MIC [3]: 0.05 to 0.58 µg/mL (≈ 0.0834 to 0.967 µM)
COc1nc2ccc(Br)cc2cc1[C@@H](c1cncc(C)c1)[C@@](O)(CCN(C)C)c1cccc(F)c1 [Compound 42] | 0.53 (≈ 0.984 µM) | 0.97 (≈ 1.8 µM) |  | Clint [1]: 56 µL/min/mg/protein; half-life [2]: 12 min; IC50 [5]: 4.6 µM; F(%) oral bioavailability [6]: 24%
COc1cccc(C(O)(CCN(C)C)C(c2ccoc2)c2cc3cc(Br)ccc3nc2OC)c1OC (stereo not shown) [Compound 26] |  |  | 1.16 (≈ 2.09 µM) | 
COc1nc2ccc(Br)cc2cc1C(c1ccco1)C(O)(CCN(C)C)c1cccc(C#N)c1 (stereo not shown) [Compound 21] |  |  | 1.96 (≈ 3.77 µM) | 
COc1nc2ccc(Br)cc2cc1[C@@H](c1cc(C)c(C)s1)[C@@](O)(CCN(C)C)c1cccc(F)c1 [Compound 9] | 0.06 (≈ 0.108 µM) | 0.11 (≈ 0.197 µM) |  | Clint [1]: 12 µL/min/mg/protein; half-life [2]: 60 min; anti-M.tb activity (in words) [3]: comparable activity to 1; MIC [3]: 0.05 to 0.58 µg/mL (≈ 0.0897 to 1.04 µM); IC50 [5]: 10 µM; F(%) oral bioavailability [6]: 48%
COc1nc2ccc(Br)cc2cc1C(c1ccco1)C(O)(CCN(C)C)c1ccccn1 (stereo not shown) [Compound 20] |  |  | 1.95 (≈ 3.93 µM) | 
COc1ncccc1[C@H](c1cc2cc(C#N)ccc2nc1OC)[C@@](O)(CCN(C)C)c1cccc(C)c1 [Compound 31] | 0.3 (≈ 0.604 µM) | 0.15 (≈ 0.302 µM) |  | 
COc1nc2ccc(C#N)cc2cc1[C@@H](c1cc(C)sc1C)[C@@](O)(CCN(C)C)c1cncc(C)c1 [Compound 7] | 1.94 (≈ 3.87 µM) | 1.1 (≈ 2.2 µM) |  | anti-M.tb activity (in words) [3]: less active; MIC [3]: 0.05 to 0.58 µg/mL (≈ 0.0999 to 1.16 µM)
COc1cccc(C(O)(CCN(C)C)C(c2ccco2)c2cc3cc(Br)ccc3nc2OC)c1OC (stereo not shown) [Compound 18] |  |  | 0.71 (≈ 1.28 µM) | 
COc1nc2ccc(Br)cc2cc1C(c1ccoc1)C(O)(CCN(C)C)c1cccc(F)n1 (stereo not shown) [Compound 24] |  |  | 0.68 (≈ 1.32 µM) | 
COc1nc2ccc(Br)cc2cc1[C@@H](c1ccc(N(C)C)nc1)[C@@](O)(CCN(C)C)c1cccc(F)c1 [Compound 36] | 0.08 (≈ 0.141 µM) | 0.15 (≈ 0.264 µM) |  | Clint [1]: 38 µL/min/mg/protein; half-life [2]: 18 min; IC50 [5]: > 10 µM; F(%) oral bioavailability [6]: 45%
COc1ncccc1[C@H](c1cc2cc(Br)ccc2nc1OC)[C@@](O)(CCN(C)C)c1cccc(C)c1 [Compound 30] | 0.13 (≈ 0.236 µM) | 0.25 (≈ 0.454 µM) |  | 
COc1nc2ccc(Br)cc2cc1C(c1ccoc1)C(O)(CCN(C)C)c1cccc(F)c1 (stereo not shown) [Compound 22, 1-(6-Bromo-2-methoxyquinolin-3-yl)-4-(dimethylamino)-2-(3-fluorophenyl)-1-(furan-3-yl)butan-2-ol] |  |  | 0.74 (≈ 1.44 µM) | 
COc1nc2ccc(C#N)cc2cc1C(c1ccco1)C(O)(CCN(C)C)c1cccc(F)c1 (stereo not shown) [Compound 16] |  |  | 1.79 (≈ 3.9 µM) | 
